Measured values reported in patent US4613695A, “N-nitroso compounds and compositions containing such compounds” (Aktiebolaget Leo, priority 1982, dated 1986).
Like-named read-outs stand apart in the source and are kept apart here.

What was measured:
in vivo = conditions: rat, po
Source text: (§1) A therapeutic index is an indication of the therapeutic usefulness of a compound, and such an index may be defined in various ways. One type of therapeutic index commonly used is the ratio LD50/ED50, wherein LD50 is the dose that causes a 50 percent lethality, and ED50 is the dose that causes a 50 percent reduction of tumour size. Another type of therapeutic index, useful in evaluation of increasing survival time, is the ratio between maximum and minimum effective dose. Both these types of therapeutic indexes are used and given in the experimental results below.
(§2) The manner of administration of the compounds is by the oral (p. o.) route in each case.
(§3) Experimental animals: Female Sprague Dawley rats
(§4) Tumour implants: Tumour pieces with 2-3 mm diameter, implanted subcutaneously
(§5) Therapy: The compound is administered p. o. once on the day after the implantation
(§6) Evaluation: Weight of tumour is determined in test animals and compared with those of control animals. For each compound the LD50 and ED50 dose (as defined above) are determined. The therapeutic index, T. I., (LD50/ED50) is calculated.

[1] = tested on: Walker carcinosarcoma 256; assay: Walker carcinosarcoma 256 tumour growth inhibition (single p.o. dose); format: in vivo, Female Sprague Dawley rats; conditions: for ED50: Rattus norvegicus, dose that causes a 50 percent reduction of tumour size, p.o. once, read-out: ED50
Source text: as §1, §2, §3, §4, §5
Termination: The animals are killed on the 9th day after implantation
as §6

Lymphatic leukemia L1210 = Lymphatic leukemia L1210 survival test (survival time increase, long term survival, cure potential); format: in vivo, Female BDF1 mice; conditions: for minimal effective dose: Mus musculus, L1210, po; for minimal effective dose / Maximum effective dose (survival time increase) / Dose or dose range for cure: p.o. once; for T.I.s (long term survival; max.effect.dose/min.effect.dose): long term survival T·100/To >20%; for T.I.s = max.effect.dose/min.effect.dose: survival time increase, t·100/c ≥125%; for Dose or dose range for cure: ≥90% long term survivors on day 60
Description: The experimental design and interpretation of the results are in accordance with the standards set by the CCNSC (see reference (16)) and by the DR&D (see reference (17)).
Experimental animals: Female BDF1 mice
Tumour implants: 10^5 tumour cells implanted intraperitoneally (i. p.)
Therapy: The compounds were administered p. o. once on the day following the implantation.
Termination: The animals were killed on the 60th day after the implantation. Living animals on the 60th day are termed long term survivors.
(a) Evaluation of therapeutic dose range for survival time increase: Survival times at various dose levels are determined, and the survival time of the test animals (t) is expressed as the percentage of that of the control animals (c):
The maximum effective dose and the minimum effective dose required to achieve t·100/c≥125% are determined, and a therapeutic index as defined below is calculated:
T. I.s =max.effect.dose/min.effect.dose.
(b) Evaluation of therapeutic dose range for long term survival: Long time survival is determined at various dose levels and is expressed as surviving test animals on day 60 (T) as the percentage of that of the total number of test animals (To):
The maximum effective dose and the minimum effective dose to achieve long term survival T·100/To >20% are determined and a therapeutic index, T. I.1 s is calculated:
T. I.1s =max.effect.dose/min.effect.dose.
(c) Evaluation of cure potential: The normal survival time for test animals receiving no therapeutic treatment is 9-11 days. Surviving test animals on the 60th day after implantation showing no sign of tumour presence are regarded as cured animals. Long term survival is determined as under (b) above, and the effective dose or dose range to achieve a long term survival T·100/To ≥90% is determined as an evaluation of the cure potential.

[2] = cited from earlier work
[3] = therapeutic index LD50/ED50, p.o.
[4] = 1440 h, >20% long term survivors on day 60, read-out: Minimum effective dose (long term survival)
[5] = median survival time percent of control ≥ 125%, read-out: Minimum effective dose (survival time increase)
[6] = median survival time percent of control ≥ 125%

SMILES: CCN(CC)S(=O)(=O)CCNC(=O)N(CCCl)N=O [1:2, 1-(2-chloroethyl)-3-(2-/diethylaminosulfonyl/ethyl)-1-nitrosourea]
- LD50 (in vivo): 60 mg/kg
- ED50 ([1]; po): 0.4 mg/kg
- T.I. LD50/ED50 [1, 3]: 150
- minimal effective dose (Lymphatic leukemia L1210; [4]): 63 mg/kg
- minimal effective dose (Lymphatic leukemia L1210; [5]): 16 mg/kg
- T.I.s (long term survival; max.effect.dose/min.effect.dose) (Lymphatic leukemia L1210): 2
- Maximum effective dose (survival time increase) (Lymphatic leukemia L1210; [6]): 125 mg/kg
- T.I.s = max.effect.dose/min.effect.dose (Lymphatic leukemia L1210): 8

SMILES: NS(=O)(=O)CCNC(=O)N(CCCl)N=O [1:3, 3-(2-/aminosulfonyl/ethyl)-1-(2-chloroethyl)-1-nitrosourea]
- LD50 (in vivo): 40 mg/kg
- ED50 ([1]; po): 0.2 mg/kg
- T.I. LD50/ED50 [1, 3]: 200
- minimal effective dose (Lymphatic leukemia L1210; [4]): 16 mg/kg
- T.I.s (long term survival; max.effect.dose/min.effect.dose) (Lymphatic leukemia L1210): 2

SMILES: O=NN(CCCl)C(=O)NCCS(=O)(=O)N1CCCCC1 [1:4, 1-(2-chloroethyl)-1-nitroso-3-(2-/1-piperidinosulfonyl/ethyl)-urea]
- LD50 (in vivo): 125 mg/kg
- ED50 ([1]; po): 1 mg/kg
- T.I. LD50/ED50 [1, 3]: 125
- minimal effective dose (Lymphatic leukemia L1210; [4]): 31 mg/kg
- minimal effective dose (Lymphatic leukemia L1210; [5]): 8 mg/kg
- T.I.s (long term survival; max.effect.dose/min.effect.dose) (Lymphatic leukemia L1210): 4
- Maximum effective dose (survival time increase) (Lymphatic leukemia L1210; [6]): 125 mg/kg
- T.I.s = max.effect.dose/min.effect.dose (Lymphatic leukemia L1210): 16
- Dose or dose range for cure (Lymphatic leukemia L1210): 125 mg/kg

SMILES: CNS(=O)(=O)CCNC(=O)N(CCCl)N=O [1:5, 1-(2-chloroethyl)-3-(2-/methylaminosulfonyl/ethyl)-1-nitrosourea]
- LD50 (in vivo): 40 mg/kg
- ED50 ([1]; po): 0.25 mg/kg
- T.I. LD50/ED50 [1, 3]: 160
- minimal effective dose (Lymphatic leukemia L1210; [5]): 8 mg/kg
- Maximum effective dose (survival time increase) (Lymphatic leukemia L1210; [6]): 63 mg/kg
- T.I.s = max.effect.dose/min.effect.dose (Lymphatic leukemia L1210): 8
- Dose or dose range for cure (Lymphatic leukemia L1210): 31 mg/kg

SMILES: CCCN(CCC)S(=O)(=O)CCNC(=O)N(CCCl)N=O [1:6, 1-(2-chloroethyl)-3-(2-/dipropylaminosulfonyl/ethyl)-1-nitrosourea]
- LD50 (in vivo): 250 mg/kg
- ED50 ([1]; po): 2 mg/kg
- T.I. LD50/ED50 [1, 3]: 125
- minimal effective dose (Lymphatic leukemia L1210; [5]): 31 mg/kg
- Maximum effective dose (survival time increase) (Lymphatic leukemia L1210; [6]): 250 mg/kg
- T.I.s = max.effect.dose/min.effect.dose (Lymphatic leukemia L1210): 8
- Dose or dose range for cure (Lymphatic leukemia L1210): 125 mg/kg

SMILES: O=NN(CCCl)C(=O)NCCS(=O)(=O)NCc1ccccc1 [1:7, 3-(2-/benzylaminosulfonyl/ethyl)-1-(2-chloroethyl)-1-nitrosourea]
- LD50 (in vivo): 250 mg/kg
- ED50 ([1]; po): 2 mg/kg
- T.I. LD50/ED50 [1, 3]: 125
- minimal effective dose (Lymphatic leukemia L1210; [4]): 125 mg/kg
- T.I.s (long term survival; max.effect.dose/min.effect.dose) (Lymphatic leukemia L1210): 2

SMILES: O=NN(CCCl)C(=O)NCCS(=O)(=O)NCCO [1:14, 1-(2-chloroethyl)-3-(2-/2-hydroxyethylaminosulfonyl/ethyl)-1-nitrosourea]
- LD50 (in vivo): 90 mg/kg
- ED50 ([1]; po): 0.6 mg/kg
- T.I. LD50/ED50 [1, 3]: 150
- minimal effective dose (Lymphatic leukemia L1210; [4]): 31 mg/kg
- minimal effective dose (Lymphatic leukemia L1210; [5]): 16 mg/kg
- T.I.s (long term survival; max.effect.dose/min.effect.dose) (Lymphatic leukemia L1210): 4
- Maximum effective dose (survival time increase) (Lymphatic leukemia L1210; [6]): 125 mg/kg
- T.I.s = max.effect.dose/min.effect.dose (Lymphatic leukemia L1210): 8
- Dose or dose range for cure (Lymphatic leukemia L1210): 63 mg/kg

SMILES: CN(CCO)S(=O)(=O)CCNC(=O)N(CCCl)N=O [1:15, 1-(2-chloroethyl)-3-(2-/N-2-hydroxyethyl-N-methyl-aminosulfonyl/ethyl)-1-nitrosourea]
- LD50 (in vivo): 90 mg/kg
- ED50 ([1]; po): 0.6 mg/kg
- T.I. LD50/ED50 ([1]; rat, in vivo, po): 150
- minimal effective dose (Lymphatic leukemia L1210; [4]): 31 mg/kg
- minimal effective dose (Lymphatic leukemia L1210; [5]): 16 mg/kg
- T.I.s (long term survival; max.effect.dose/min.effect.dose) (Lymphatic leukemia L1210): 4
- Maximum effective dose (survival time increase) (Lymphatic leukemia L1210; [6]): 125 mg/kg
- T.I.s = max.effect.dose/min.effect.dose (Lymphatic leukemia L1210): 8
- Dose or dose range for cure (Lymphatic leukemia L1210): 63 mg/kg

SMILES: CN(C)S(=O)(=O)CCCCCNC(=O)N(CCCl)N=O [1:19, 1-(2-chloroethyl)-3-(5-/dimethylaminosulfonyl/pentyl)-1-nitrosourea]
- LD50 (in vivo): 250 mg/kg
- ED50 ([1]; po): 1 mg/kg
- T.I. LD50/ED50 [1, 3]: 250
- minimal effective dose (Lymphatic leukemia L1210; [4]): 63 mg/kg
- T.I.s (long term survival; max.effect.dose/min.effect.dose) (Lymphatic leukemia L1210): 2
- Dose or dose range for cure (Lymphatic leukemia L1210): 125 mg/kg

SMILES: CN(C)S(=O)(=O)CCCCNC(=O)N(CCCl)N=O [1:24, 1-(2-chloroethyl)-3-(4-/dimethylaminosulfonyl/butyl)-1-nitrosourea]
- LD50 (in vivo): 250 mg/kg
- ED50 ([1]; po): 2 mg/kg
- T.I. LD50/ED50 ([1]; rat, in vivo, po): 125
- minimal effective dose (Lymphatic leukemia L1210; [4]): 63 mg/kg
- minimal effective dose (Lymphatic leukemia L1210; [5]): 31 mg/kg
- T.I.s (long term survival; max.effect.dose/min.effect.dose) (Lymphatic leukemia L1210): 4
- Maximum effective dose (survival time increase) (Lymphatic leukemia L1210; [6]): 250 mg/kg
- T.I.s = max.effect.dose/min.effect.dose (Lymphatic leukemia L1210): 8
- Dose or dose range for cure (Lymphatic leukemia L1210): 125 mg/kg

SMILES: CN(C1CCCCC1)S(=O)(=O)CCNC(=O)N(CCCl)N=O [1:28, 1-(2-chloroethyl)-3-(2-/N-cyclohexyl-N-methylaminosulfonyl/ethyl)-1-nitrosourea]
- LD50 (in vivo): > 250 mg/kg
- ED50 ([1]; po): 2.5 mg/kg
- T.I. LD50/ED50 [1, 3]: > 100
- minimal effective dose (Lymphatic leukemia L1210; [4]): 125 mg/kg
- minimal effective dose (Lymphatic leukemia L1210; [5]): 31 mg/kg
- T.I.s (long term survival; max.effect.dose/min.effect.dose) (Lymphatic leukemia L1210): 2
- Maximum effective dose (survival time increase) (Lymphatic leukemia L1210; [6]): 250 mg/kg
- T.I.s = max.effect.dose/min.effect.dose (Lymphatic leukemia L1210): 8
- Dose or dose range for cure (Lymphatic leukemia L1210): 125 mg/kg

SMILES: O=NN(CCCl)C(=O)NCCCl [BCNU, 1,2-bis-(2-chloroethyl)-nitrosourea, reference compound]
- LD50 (in vivo): 50 mg/kg
- ED50 ([1]; po): 1 mg/kg
- T.I. LD50/ED50 [1, 3]: 50
- minimal effective dose (Lymphatic leukemia L1210; [4]): 63 mg/kg
- minimal effective dose (Lymphatic leukemia L1210; [5]): 16 mg/kg
- T.I.s (long term survival; max.effect.dose/min.effect.dose) (Lymphatic leukemia L1210): 1
- Maximum effective dose (survival time increase) (Lymphatic leukemia L1210; [6]): 63 mg/kg
- T.I.s = max.effect.dose/min.effect.dose (Lymphatic leukemia L1210): 4
- Dose or dose range for cure (Lymphatic leukemia L1210): none

SMILES: O=NN(CCCl)C(=O)N[C@H]1C(O)O[C@H](CO)[C@@H](O)[C@@H]1O (stereo partly drawn) [Chlorozotocin, 2-/3-(2-chloroethyl)-3-nitrosoureido/-D-glucopyranose]
- other types of toxicities ([2]; references (6, 7)): still evident, e.g. liver and lung toxicity
- bone marrow toxicity ([2]; under clinical evaluation, reference (5)): decreased bone marrow toxicity
